Measured values from US7625897B2, “Non-nucleoside reverse transcriptase inhibitors” (Roche Palo Alto LLC, priority 2005, dated 2009).
Read-outs that look alike come from different tables or passages of the source.

Columns and labels:
HIV-1 RT = HIV-1 RT (Human immunodeficiency virus type 1 group M subtype B, UniProt P03366); test: HIV Reverse Transcriptase Assay: Inhibitor IC50 determination; assay type: biochemical; details: purified recombinant enzyme, poly(rA)/oligo(dT)16 template-primer, read-out: HIV-RT IC50 RT
Experimental: HIV Reverse Transcriptase Assay: Inhibitor IC50 determination
HIV-1 RT assay was carried out in 96-well Millipore MultiScreen MADVNOB50 plates using purified recombinant enzyme and a poly(rA)/oligo(dT)16 template-primer in a total volume of 50 μL. The assay constituents were 50 mM Tris/HCl, 50 mM NaCl, 1 mM EDTA, 6 mM MgCl2, 5 μM dTTP, 0.15 μCi [^3H] dTTP, 5 μg/ml poly (rA) pre annealed to 2.5 μg/ml oligo (dT)16 and a range of inhibitor concentrations in a final concentration of 10% DMSO. Reactions were initiated by adding 4 nM HIV-1 RT and after incubation at 37° C. for 30 min, they were stopped by the addition of 50 μl ice cold 20% TCA and allowed to precipitate at 4° C. for 30 min. The precipitates were collected by applying vacuum to the plate and sequentially washing with 3×200 μl of 10% TCA and 2×200 μl 70% ethanol. Finally, the plates were dried and radioactivity counted in a Packard TopCounter after the addition of 25 μl scintillation fluid per well. IC50's were calculated by plotting % inhibition versus log10 inhibitor concentrations.

Compound: CCC1OC(Cc2ccc(Cl)c(Oc3cccc(C#N)c3)c2)=NNC1=O (centres unmarked) [Compound I-14, 3-[2-Chloro-5-(6-ethyl-5-oxo-5,6-dihydro4H-[1,3,4]oxadiazin-2-ylmethyl)-phenoxy]-benzonitrile]
- IC50 (HIV-1 RT; TABLE I): 128 nM

Compound: Cc1nc(Cc2ccc(Cl)c(Oc3cccc(Br)c3)c2)n[nH]c1=O [II-1]
- IC50 (HIV-1 RT; TABLE II): 331 nM

Compound: CC1(C)NC(Cc2ccc(Cl)c(Oc3cc(Cl)cc(C#N)c3)c2F)=NNC1=O [Compound I-27]
- IC50 (HIV-1 RT; TABLE I): 7070 nM

Compound: O=c1[nH]nc(Cc2ccc(Cl)c(Oc3cccc(Br)c3)c2)nc1-c1ccccc1 [II-3, 3-[3-(3-Bromo-phenoxy)4-chloro-benzyl]-5-phenyl-1H-[1,2,4]triazin-6-one]
- IC50 (HIV-1 RT; TABLE II): 346 nM
- melting point: 59.8 to 63.9 °C

Compound: CC[C@H]1NC(Cc2ccc(Cl)c(Oc3cc(Cl)cc(C#N)c3)c2F)=NNC1=O [Compound I-17, 3-Chloro-5-[6-chloro-3-((R)-5-ethyl-6-oxo-1,4,5,6-tetrahydro-[1,2,4]triazin-3-ylmethyl)-2-fluoro-phenoxy]-benzonitrile]
- IC50 (HIV-1 RT; TABLE I): 13 nM

Compound: N#Cc1cc(Cl)cc(Oc2c(Cl)ccc(CC3=NNC(=O)[C@@H](CO)N3)c2F)c1 [Compound I-30]
- IC50 (HIV-1 RT; TABLE I): 418 nM
- melting point: 112.5 to 114 °C

Compound: Cc1ccc(CC2=NNC(=O)[C@@H](C)N2)c(F)c1Oc1cc(C#N)cc(C(F)F)c1 [Compound I-19, 3-Difluoromethyl-5-[2-fluoro-6-methyl-3-((R)-5-methyl-6-oxo-1,4,5,6-tetrahydro-[1,2,4]triazin-3-ylmethyl)-phenoxy]-benzonitrile]
- IC50 (HIV-1 RT; TABLE I): 18 nM

Compound: CC1(C)OC(Cc2ccc(Cl)c(Oc3cccc(Br)c3)c2)=NNC1=O [Compound I-11, 2-[3-(3-Bromo-phenoxy)4-chloro-benzyl]-6,6-dimethyl-4H-[1,3,4]oxadiazin-5-one]
- IC50 (HIV-1 RT; TABLE I): > 10000 nM

Compound: C[C@@H]1NC(Cc2ccc(Cl)c(Oc3cc(Cl)cc(C#N)c3)c2F)=NNC1=O [Compound I-18, 3-Chloro-5-[6-chloro-2-fluoro-3-(5-methyl-6-oxo-1,4,5,6-tetrahydro-[1,2,4]triazin-3-ylmethyl)-phenoxy]-benzonitrile]
- IC50 (HIV-1 RT; TABLE I): 11.9 nM

Compound: CC1OC(Cc2ccc(Cl)c(Oc3cc(Br)cc(Br)c3)c2F)=NNC1=O (centres unmarked) [Compound I-7, 2-[4-Chloro-3-(3,5-dibromo-phenoxy)-2-fluoro-benzyl]-6-methyl-4H-[1,3,4]oxadiazin-5-one]
- IC50 (HIV-1 RT; TABLE I): 24.5 nM
- melting point: 174.2 to 176.1 °C

Compound: Cc1nc(Cc2ccc(Cl)c(Oc3cc(Br)cc(C#N)c3)c2F)n[nH]c1=O [II-6, 3-Bromo-5-[6-chloro-2-fluoro-3-(5-methyl-6-oxo-1,6-dihydro-[1,2,4]triazin-3-ylmethyl)-phenoxy]-benzonitrile]
- IC50 (HIV-1 RT; TABLE II): 32.5 nM

Compound: C[C@@H]1NC(Cc2ccc(Cl)c(Oc3cc(Br)cc(Br)c3)c2F)=NNC1=O [Compound I-2, (S)-3-[4-Chloro-3-(3,5-dibromo-phenoxy)-2-fluoro-benzyl]-5-methyl4,5-dihydro-1H-[1,2,4]triazin-6-one]
- IC50 (HIV-1 RT; TABLE I): 165 nM
- melting point: 88 to 91.5 °C

Compound: N#Cc1cc(Cl)cc(Oc2c(Cl)ccc(CC3=NNC(=O)CN3)c2F)c1 [Compound I-28]
- IC50 (HIV-1 RT; TABLE I): 143 nM
- melting point: 177.6 to 178 °C

Compound: CC1CC(Cc2ccc(Cl)c(Oc3cc(Cl)cc(C#N)c3)c2F)=NNC1=O (stereo in doubt) [Compound I-22, 3-chloro-5-[6-chloro-2-fluoro-3-((S)-5-methyl-6-oxo-1,4,5,6-tetrahydro-pyridazin-3-ylmethyl)-phenoxy]-benzonitrile]
- IC50 (HIV-1 RT; TABLE I): 17.7 nM
- melting point: 156.5 to 157.2 °C

Compound: Cc1nc(Cc2ccc(Cl)c(Oc3cc(Br)cc(Br)c3)c2F)n[nH]c1=O [II-4, 3-[4-Chloro-3-(3,5-dibromo-phenoxy)-2-fluoro-benzyl]-5-methyl-1H-[1,2,4]triazin-6-one]
- IC50 (HIV-1 RT; TABLE II): 137 nM
- melting point: 180.9 to 183.3 °C

Compound: CC1OC(Cc2ccc(Cl)c(Oc3cc(Cl)cc(C#N)c3)c2F)=NNC1=O (centres unmarked) [Compound I-8, 3-Chloro-5-[6-chloro-2-fluoro-3-(6-methyl-5-oxo-5,6-dihydro-4H-[1,3,4]oxadiazin-2-ylmethyl)-phenoxy]-benzonitrile]
- IC50 (HIV-1 RT; TABLE I): 13.6 nM

Compound: O=C1NN=C(Cc2ccc(Cl)c(Oc3cc(Br)cc(Br)c3)c2F)NC12CC2 [Compound I-10, 5-[4-Chloro-3-(3,5-dibromo-phenoxy)-2-fluoro-benzyl]-4,6,7-triaza-spiro[2.5]oct-5-en-8-one]
- IC50 (HIV-1 RT; TABLE I): 66 nM
- melting point: 90 to 95 °C

Compound: N#Cc1cc(Cl)cc(Oc2c(Cl)ccc(CC3=NNC(=O)C(C(F)(F)F)N3)c2F)c1 (centres unmarked) [Compound I-29]
- IC50 (HIV-1 RT; TABLE I): 26.9 nM

Compound: CC1OC(Cc2ccc(Cl)c(Oc3cc(Cl)cc(Br)c3)c2F)=NNC1=O (centres unmarked) [Compound I-6, 2-[3-(3-Bromo-5-chloro-phenoxy)-4-chloro-2-fluoro-benzyl]-6-methyl-4H-[1,3,4]oxadiazin-5-one]
- IC50 (HIV-1 RT; TABLE I): 24.7 nM

Compound: CC1OC(Cc2ccc(Cl)c(Oc3cccc(Br)c3)c2)=NNC1=O (centres unmarked) [Compound I-4, 2-[3-(3-Bromo-phenoxy)-4-chloro-benzyl]-6-methyl-4H-[1,3,4]oxadiazin-5-one]
- IC50 (HIV-1 RT; TABLE I): 51.5 nM

Compound: CC1(C)OC(Cc2ccc(Cl)c(Oc3cccc(C#N)c3)c2)=NNC1=O [Compound I-13, 3-[2-Chloro-5-(6,6-dimethyl-5-oxo-5,6-dihydro-4H-[1,3,4]oxadiazin-2-ylmethyl)-phenoxy]-benzonitrile]
- IC50 (HIV-1 RT; TABLE I): 9490 nM
- melting point: 94.1 to 95.3 °C

Compound: C[C@H]1CC(Cc2ccc(Cl)c(Oc3cccc(Br)c3)c2)=NNC1=O [Compound I-20, (S)-6-[3-(3-Bromo-phenoxy)4-chloro-benzyl]-4-methyl-4,5-dihydro-2H-pyridazin-3-one]
- IC50 (HIV-1 RT; TABLE I): 65.4 nM

Compound: C[C@@H]1NC(Cc2ccc(Cl)c(Oc3cccc(Br)c3)c2)=NNC1=O [Compound I-1, (S)-3-[3-(3-Bromo-phenoxy)-4-chloro-benzyl]-5-methyl-4,5-dihydro-1H-[1,2,4]triazin-6-one]
- IC50 (HIV-1 RT; TABLE I): 4520 nM

Compound: CC1OC(Cc2ccc(Cl)c(Oc3cc(C#N)cc(C#N)c3)c2F)=NNC1=O (centres unmarked) [Compound I-9, 5-[6-chloro-2-fluoro-3-(6-methyl-5-oxo-5,6-dihydro-4H-[1,3,4]oxadiazin-2-ylmethyl)-phenoxy]-isophthalonitrile]
- IC50 (HIV-1 RT; TABLE I): 40.3 nM
- melting point: 60.9 to 67.7 °C

Compound: O=C1CCC(Cc2ccc(Cl)c(Oc3ccccc3)c2)=NN1 [Compound I-24, 6-(4-Chloro-3-phenoxy-benzyl)-4,5-dihydro-2H-pyridazin-3-one]
- IC50 (HIV-1 RT; TABLE I): 2630 nM

Compound: C[C@H]1NC(Cc2ccc(Br)c(Oc3cc(Cl)cc(C#N)c3)c2F)=NNC1=O [Compound I-26]
- IC50 (HIV-1 RT; TABLE I): 6.6 nM
- melting point: 178.2 to 179 °C

Compound: C[C@H]1NC(Cc2ccc(Cl)c(Oc3cc(C#N)cc(C(F)F)c3)c2F)=NNC1=O [Compound I-16, 3-[6-Chloro-2-fluoro-3-((R)-5-methyl-6-oxo-1,4,5,6-tetrahydro-[1,2,4]triazin-3-ylmethyl)-phenoxy]-5-difluoromethyl-benzonitrile]
- IC50 (HIV-1 RT; TABLE I): 15.3 nM

Compound: CC1CC(Cc2ccc(Cl)c(Oc3cc(Cl)cc(Br)c3)c2F)=NNC1=O (stereo in doubt) [Compound I-23, (S)-6-[3-(3-Bromo-5-chloro-phenoxy)-4-chloro-2-fluoro-benzyl]-4-methyl-4,5-dihydro-2H-pyridazin-3-one]
- IC50 (HIV-1 RT; TABLE I): 14.3 nM
- melting point: 148.2 to 151 °C

Compound: C[C@H]1CC(Cc2ccc(Cl)c(Oc3cccc(C#N)c3)c2)=NNC1=O [Compound I-21, 3-[2-chloro-5-((S)-5-methyl-6-oxo-1,4,5,6-tetrahydro-pyridazin-3-ylmethyl)-phenoxy]-benzonitrile]
- IC50 (HIV-1 RT; TABLE I): 46.9 nM

Compound: Cc1nc(Cc2ccc(Cl)c(Oc3cccc(C#N)c3)c2)n[nH]c1=O [II-2, 3-[2-Chloro-5-(5-methyl-6-oxo-1,6-dihydro-[1,2,4]triazin-3-ylmethyl)-phenoxy]-benzonitrile]
- IC50 (HIV-1 RT; TABLE II): 206 nM
- melting point: 145.3 to 145.8 °C

Compound: CCC1OC(Cc2ccc(Cl)c(Oc3cccc(Br)c3)c2)=NNC1=O (centres unmarked) [Compound I-12, 2-[3-(3-Bromo-phenoxy)-4-chloro-benzyl]-6-ethyl-4H-[1,3,4]oxadiazin-5-one]
- IC50 (HIV-1 RT; TABLE I): 212 nM

Compound: C[C@H]1NC(Cc2ccc(Br)c(Oc3cc(C#N)cc(C(F)F)c3)c2F)=NNC1=O [Compound I-25, 3-[6-Bromo-2-fluoro-3-((R)-5-methyl-6-oxo-1,4,5,6-tetrahydro-[1,2,4]triazin-3-ylmethyl)-phenoxy]-5-difluoromethyl-benzonitrile]
- IC50 (HIV-1 RT; TABLE I): 11.7 nM
- melting point: 231.5 to 233 °C

Compound: C[C@H]1NC(Cc2ccc(Cl)c(Oc3cc(Br)cc(Br)c3)c2F)=NNC1=O [Compound I-3, (R)-3-[4-Chloro-3-(3,5-dibromo-phenoxy)-2-fluoro-benzyl]-5-methyl-4,5-dihydro-1H-[1,2,4]triazin-6-one]
- IC50 (HIV-1 RT; TABLE I): 10.7 nM
- melting point: 75.2 to 79.1 °C

Compound: Cc1nc(Cc2ccc(Cl)c(Oc3cc(C#N)cc(C#N)c3)c2F)n[nH]c1=O [II-5, 5-[6-chloro-2-fluoro-3-(5-methyl-6-oxo-1,6-dihydro-[1,2,4]triazin-3-ylmethyl)-phenoxy]-isophthalonitrile]
- IC50 (HIV-1 RT; TABLE II): 432 nM
- melting point: 194.7 to 197.4 °C
